Results from ChEMBL document CHEMBL4346705, “(±)-trans-Dihydronarciclasine and (±)-trans-dihydrolycoricidine analogues modified in their ring A: Evaluation of their anticancer activity and a SAR study” (2019).

Tests used:
Assay type in all cases: functional
[1] = test system: CCRF-CEM; test: Cytotoxicity against human CCRF-CEM cells assessed as growth inhibition after 48 hrs by sulforhodamine B assay
[2] = test system: HL-60(TB); test: Cytotoxicity against human HL-60(TB) cells assessed as growth inhibition after 48 hrs by sulforhodamine B assay; conditions: HL-60, 48 h
[3] = test system: HOP-62; test: Cytotoxicity against human HOP62 cells assessed as growth inhibition after 48 hrs by sulforhodamine B assay; conditions: HOP-62, 48 h; for CC50: read-out: LC50 (the source's name)
[4] = test system: NCI-H460; test: Cytotoxicity against human NCI-H460 cells assessed as growth inhibition after 48 hrs by sulforhodamine B assay; conditions: NCI-H460, 48 h
[5] = test system: NCI-H522; test: Cytotoxicity against human NCI-H522 cells assessed as growth inhibition after 48 hrs by sulforhodamine B assay; conditions: NCI-H522, 48 h
[6] = test system: COLO 205; test: Cytotoxicity against human COLO205 cells assessed as growth inhibition after 48 hrs by sulforhodamine B assay; conditions: COLO 205, 48 h
[7] = test system: HCT-116; test: Cytotoxicity against human HCT116 cells assessed as growth inhibition after 48 hrs by sulforhodamine B assay; conditions: HCT-116, 48 h
[8] = test system: HCT-15; test: Cytotoxicity against human HCT15 cells assessed as growth inhibition after 48 hrs by sulforhodamine B assay; conditions: HCT-15, 48 h
[9] = test system: KM12; test: Cytotoxicity against human KM12 cells assessed as growth inhibition after 48 hrs by sulforhodamine B assay; conditions: KM12, 48 h
[10] = test system: SNB-75; test: Cytotoxicity against human SNB75 cells assessed as growth inhibition after 48 hrs by sulforhodamine B assay; conditions: SNB-75, 48 h
[11] = test system: U-251; test: Cytotoxicity against human U251 cells assessed as growth inhibition after 48 hrs by sulforhodamine B assay; conditions: U-251, 48 h
[12] = test system: LOX IMVI; test: Cytotoxicity against human LOXIMVI cells assessed as growth inhibition after 48 hrs by sulforhodamine B assay
[13] = test system: M14; test: Cytotoxicity against human M14 cells assessed as growth inhibition after 48 hrs by sulforhodamine B assay; conditions: M14, 48 h; for CC50: read-out: LC50 (the source's name)
[14] = test system: SK-MEL-28; test: Cytotoxicity against human SK-MEL-28 cells assessed as growth inhibition after 48 hrs by sulforhodamine B assay; conditions: SK-MEL-28, 48 h
[15] = test system: SK-MEL-5; test: Cytotoxicity against human SK-MEL-5 cells assessed as growth inhibition after 48 hrs by sulforhodamine B assay; conditions: SK-MEL-5, 48 h; for CC50: read-out: LC50 (the source's name)
[16] = test system: UACC-257; test: Cytotoxicity against human UACC257 cells assessed as growth inhibition after 48 hrs by sulforhodamine B assay; conditions: UACC-257, 48 h
[17] = test system: OVCAR-3; test: Cytotoxicity against human OVCAR3 cells assessed as growth inhibition after 48 hrs by sulforhodamine B assay; conditions: OVCAR-3, 48 h
[18] = test system: NCI/ADR-RES; test: Cytotoxicity against human NCI-ADR-RES cells assessed as growth inhibition after 48 hrs by sulforhodamine B assay; conditions: for CC50: read-out: LC50 (the source's name)
[19] = test system: 786-0; test: Cytotoxicity against human 786-0 cells assessed as growth inhibition after 48 hrs by sulforhodamine B assay; conditions: 786-0, 48 h
[20] = test system: PC-3; test: Cytotoxicity against human PC3 cells assessed as growth inhibition after 48 hrs by sulforhodamine B assay; conditions: PC-3, 48 h
[21] = test system: MCF7; test: Cytotoxicity against human MCF7 cells assessed as growth inhibition after 48 hrs by sulforhodamine B assay; conditions: MCF7, 48 h
[22] = test system: Hs-578T; test: Cytotoxicity against human Hs 578T cells assessed as growth inhibition after 48 hrs by sulforhodamine B assay
[23] = test system: BT-549; test: Cytotoxicity against human BT549 cells assessed as growth inhibition after 48 hrs by sulforhodamine B assay; conditions: BT-549, 48 h
[24] = test system: MDA-MB-468; test: Cytotoxicity against human MDA-MB-468 cells assessed as growth inhibition after 48 hrs by sulforhodamine B assay; conditions: MDA-MB-468, 48 h; for CC50: read-out: LC50 (the source's name)

## O=C1NC2C(CC(O)C(O)C2O)c2cc3c(c(O)c21)OCO3 (racemic)
[1]
  GI50: 52.9 nM
  TGI: 2150 nM
[2]
  GI50: 60.1 nM
  TGI: 260 nM
[3]
  GI50: 56.8 nM
  TGI: 420 nM
  CC50: > 100000 nM
[4]
  GI50: 43.3 nM
  TGI: 490 nM
[5]
  GI50: 46.7 nM
  TGI: 310 nM
[6]
  GI50: 50.5 nM
  TGI: 210 nM
[7]
  GI50: 40.4 nM
  TGI: 1130 nM
[8]
  GI50: 85.7 nM
  TGI: 1110 nM
[9]
  GI50: 44.5 nM
  TGI: 320 nM
[10]
  GI50: 75.4 nM
  TGI: 620 nM
[10]; read-out: LC50 (the source's name)
  CC50: 13200 nM
[11]
  GI50: 45.2 nM
  TGI: 1010 nM
[12]
  GI50: 33.6 nM
  TGI: 170 nM
[13]
  GI50: 52.5 nM
  TGI: 220 nM
  CC50: 700 nM
[14]
  GI50: 62.9 nM
  TGI: 480 nM
[15]
  GI50: 71.9 nM
  TGI: 360 nM
  CC50: 2220 nM
[16]
  GI50: 68.7 nM
  TGI: 540 nM
[17]
  GI50: 93.3 nM
  TGI: 480 nM
[18]
  GI50: 178 nM
  TGI: 1560 nM
  CC50: > 100000 nM
[19]
  GI50: 151 nM
  TGI: 1290 nM
[20]
  GI50: 164 nM
  TGI: 850 nM
[21]
  GI50: 36.3 nM
  TGI: 1230 nM
[22]
  GI50: 76.1 nM
  TGI: 510 nM
[23]
  GI50: 178 nM
  TGI: 820 nM
[24]
  GI50: 32 nM
  TGI: 190 nM
  CC50: 6590 nM

## O=C1NC2C(CC(O)C(O)C2O)c2cc3c(c(O)c21)OCCO3 (racemic)
[1]
  GI50: 73.7 nM
  LC50 (concentration giving 50% net cell kill): > 100000 nM
  TGI: 1830 nM
[2]
  GI50: 166 nM
  LC50: > 100000 nM
  TGI: 590 nM
[3]
  GI50: 255 nM
  TGI: 910 nM
  CC50: 7270 nM
[4]
  GI50: 154 nM
  LC50: > 100000 nM
  TGI: 1050 nM
[5]
  GI50: 147 nM
  LC50: 7620 nM
  TGI: 730 nM
[6]
  GI50: 176 nM
  TGI: 410 nM
[7]
  GI50: 77.7 nM
  LC50: > 100000 nM
  TGI: 1310 nM
[8]
  GI50: 280 nM
  LC50 (50% lethal concentration): > 100000 nM
  TGI: 1910 nM
[9]
  GI50: 187 nM
  LC50: > 100000 nM
  TGI: 1210 nM
[11]
  GI50: 243 nM
  LC50: > 100000 nM
  TGI: 14500 nM
[12]
  GI50: 180 nM
  LC50 (concentration killing 50% of cells): 3580 nM
  TGI: 530 nM
[13]
  GI50: 230 nM
  TGI: 1190 nM
  CC50: 5530 nM
[14]
  GI50: 238 nM
  LC50 (concentration killing 50% of cells): 29400 nM
  TGI: 890 nM
[15]
  GI50: 181 nM
  TGI: 470 nM
  CC50: 2220 nM
[16]
  GI50: 289 nM
  LC50: > 100000 nM
  TGI: 1470 nM
[17]
  GI50: 280 nM
  LC50: > 100000 nM
  TGI: 960 nM
[18]
  GI50: 596 nM
  TGI: 5850 nM
  CC50: > 100000 nM
[19]
  GI50: 254 nM
  LC50 (concentration killing 50% of cells): > 100000 nM
  TGI: 1610 nM
[20]
  GI50: 299 nM
  LC50: > 100000 nM
  TGI: 2140 nM
[21]
  GI50: 103 nM
  LC50: > 100000 nM
  TGI: 590 nM
[22]
  GI50: 256 nM
  LC50 (concentration killing 50% of cells): > 100000 nM
  TGI: 940 nM
[23]
  GI50: 260 nM
  LC50 (concentration killing 50% of cells): > 100000 nM
  TGI: 870 nM
[24]
  GI50: 68.1 nM
  TGI: 360 nM
  CC50: 2780 nM
